Measurements: ChEMBL document CHEMBL2157895, “Selective Dual Inhibitors of the Cancer-Related Deubiquitylating Proteases USP7 and USP47” (ACS Med Chem Lett, 2012)
The source made the active and inactive calls. No cut-off for these calls is given here.

Legend:
[1] = molecular target: T1, Calpain-1 catalytic subunit (Homo sapiens) (UniProt P07384); test: Inhibition of calpain1
T1 sequence (whole entry): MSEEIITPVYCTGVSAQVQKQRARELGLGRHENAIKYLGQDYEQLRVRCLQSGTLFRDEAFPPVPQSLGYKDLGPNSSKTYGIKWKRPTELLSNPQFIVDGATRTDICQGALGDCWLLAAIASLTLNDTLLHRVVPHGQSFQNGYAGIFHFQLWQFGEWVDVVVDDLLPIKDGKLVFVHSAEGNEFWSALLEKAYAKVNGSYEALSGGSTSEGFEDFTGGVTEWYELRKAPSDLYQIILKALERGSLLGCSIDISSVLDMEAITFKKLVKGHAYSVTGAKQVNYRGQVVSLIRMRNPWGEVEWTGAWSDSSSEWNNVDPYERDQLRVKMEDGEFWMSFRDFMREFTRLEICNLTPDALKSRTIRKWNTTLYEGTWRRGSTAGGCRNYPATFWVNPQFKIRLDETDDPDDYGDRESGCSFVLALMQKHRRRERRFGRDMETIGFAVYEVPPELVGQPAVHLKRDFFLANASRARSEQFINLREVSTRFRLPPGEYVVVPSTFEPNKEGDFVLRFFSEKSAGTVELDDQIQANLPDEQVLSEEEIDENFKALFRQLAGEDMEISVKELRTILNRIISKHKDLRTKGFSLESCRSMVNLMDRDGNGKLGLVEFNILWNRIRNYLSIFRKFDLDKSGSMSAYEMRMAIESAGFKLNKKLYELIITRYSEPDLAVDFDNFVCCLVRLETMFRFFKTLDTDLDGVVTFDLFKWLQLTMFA

[2] = molecular target: T2, Ubiquitin carboxyl-terminal hydrolase 28 (Homo sapiens) (UniProt Q96RU2); test: Inhibition of USP28 by Ub-CHOP reporter assay
T2 sequence (whole entry): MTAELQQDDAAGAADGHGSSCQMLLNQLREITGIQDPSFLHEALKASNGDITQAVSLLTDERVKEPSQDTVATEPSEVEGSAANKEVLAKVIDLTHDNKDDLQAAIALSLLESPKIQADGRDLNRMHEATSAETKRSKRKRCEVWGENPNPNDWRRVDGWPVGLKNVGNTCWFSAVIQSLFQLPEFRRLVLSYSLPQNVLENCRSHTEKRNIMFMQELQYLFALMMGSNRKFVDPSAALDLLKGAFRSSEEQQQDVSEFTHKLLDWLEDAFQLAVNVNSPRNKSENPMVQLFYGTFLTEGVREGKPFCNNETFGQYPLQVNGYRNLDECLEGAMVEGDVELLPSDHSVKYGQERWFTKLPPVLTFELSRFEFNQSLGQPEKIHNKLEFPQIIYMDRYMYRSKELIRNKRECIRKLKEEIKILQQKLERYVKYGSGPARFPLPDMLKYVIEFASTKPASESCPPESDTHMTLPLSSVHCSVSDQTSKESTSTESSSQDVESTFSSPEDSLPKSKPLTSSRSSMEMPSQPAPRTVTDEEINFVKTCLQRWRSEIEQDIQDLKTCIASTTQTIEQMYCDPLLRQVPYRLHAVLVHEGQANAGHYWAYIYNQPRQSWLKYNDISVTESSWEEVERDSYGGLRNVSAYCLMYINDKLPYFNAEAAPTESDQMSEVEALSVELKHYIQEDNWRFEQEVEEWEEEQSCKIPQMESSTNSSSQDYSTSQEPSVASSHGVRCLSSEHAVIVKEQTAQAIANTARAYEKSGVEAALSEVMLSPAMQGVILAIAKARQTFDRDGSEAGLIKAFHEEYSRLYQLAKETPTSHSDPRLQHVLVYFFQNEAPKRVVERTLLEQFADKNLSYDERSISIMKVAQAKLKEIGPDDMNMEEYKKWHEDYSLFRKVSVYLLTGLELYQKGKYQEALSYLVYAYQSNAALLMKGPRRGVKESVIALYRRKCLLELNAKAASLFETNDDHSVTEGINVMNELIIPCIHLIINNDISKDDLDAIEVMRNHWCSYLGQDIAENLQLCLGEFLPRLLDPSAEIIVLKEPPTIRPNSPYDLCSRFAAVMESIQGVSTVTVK

[3] = molecular target: T3, Ubiquitin carboxyl-terminal hydrolase 2 (Homo sapiens) (UniProt O75604); test: Inhibition of USP2 expressed in Escherichia coli BL21(DE3) by Ub-CHOP reporter assay
T3 sequence (whole entry): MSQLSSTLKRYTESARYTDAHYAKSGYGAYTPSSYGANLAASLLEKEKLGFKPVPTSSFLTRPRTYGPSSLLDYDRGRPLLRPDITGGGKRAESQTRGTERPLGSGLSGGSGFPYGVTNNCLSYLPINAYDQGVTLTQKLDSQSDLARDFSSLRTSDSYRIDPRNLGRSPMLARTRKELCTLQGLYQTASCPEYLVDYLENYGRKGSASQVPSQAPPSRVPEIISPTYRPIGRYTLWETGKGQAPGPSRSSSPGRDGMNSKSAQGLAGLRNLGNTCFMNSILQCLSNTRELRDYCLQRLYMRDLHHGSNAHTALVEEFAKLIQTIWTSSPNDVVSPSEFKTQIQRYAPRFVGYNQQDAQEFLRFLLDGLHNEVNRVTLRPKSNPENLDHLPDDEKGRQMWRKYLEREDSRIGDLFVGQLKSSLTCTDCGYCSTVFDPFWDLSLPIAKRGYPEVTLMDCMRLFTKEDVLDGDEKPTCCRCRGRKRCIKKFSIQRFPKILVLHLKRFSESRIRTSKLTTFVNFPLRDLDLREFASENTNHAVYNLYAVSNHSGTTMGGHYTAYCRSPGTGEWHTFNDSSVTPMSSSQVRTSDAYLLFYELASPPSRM

[4] = molecular target: T4, Ubiquitin carboxyl-terminal hydrolase 21 (Homo sapiens) (UniProt Q9UK80); test: Inhibition of HIs6-tagged USP21 by Ub-CHOP reporter assay
T4 sequence (whole entry): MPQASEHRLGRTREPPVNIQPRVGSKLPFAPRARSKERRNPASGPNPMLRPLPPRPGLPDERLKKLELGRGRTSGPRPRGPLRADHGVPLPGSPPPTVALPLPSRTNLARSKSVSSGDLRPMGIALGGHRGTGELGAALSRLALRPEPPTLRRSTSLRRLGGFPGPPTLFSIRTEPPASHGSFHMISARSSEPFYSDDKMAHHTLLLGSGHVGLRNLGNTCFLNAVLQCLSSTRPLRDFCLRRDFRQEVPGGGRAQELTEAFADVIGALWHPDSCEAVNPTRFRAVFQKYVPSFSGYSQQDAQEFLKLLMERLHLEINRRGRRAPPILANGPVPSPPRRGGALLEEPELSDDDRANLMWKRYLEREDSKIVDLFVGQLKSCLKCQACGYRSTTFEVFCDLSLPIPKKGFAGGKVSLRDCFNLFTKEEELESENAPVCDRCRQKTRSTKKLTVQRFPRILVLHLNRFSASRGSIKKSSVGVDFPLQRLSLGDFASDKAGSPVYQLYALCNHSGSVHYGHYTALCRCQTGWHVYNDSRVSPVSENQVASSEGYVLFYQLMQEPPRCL

inhibition [1]: inactive | inhibition [2]: inactive | inhibition [3]: inactive | inhibition [4]: inactive
SMILES: CS(=O)(=O)c1ccc(NC(=O)c2cc(C#N)c(Sc3c(Cl)cncc3Cl)s2)cc1
